Measurements: patent US20250163057A1, “DCN-1 MODULATING COMPOUNDS AND METHODS OF USE THEREOF” (Cellarity, Inc., priority 2023, published 2025)
Where two headings read alike, the source gives them in different places.

Legend:
[1] = system: Cullin-3 (CUL3) neddylation; assay: AlphaLISA assay for Cullin-3 (CUL3) neddylation in TF 1 cells; type: cell-based; conditions: Homo sapiens, 3 hours treatment
Procedure, shortened: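 Neddylated CUL3 was quantified by AlphaLISA in lysates of TF 1 cells exposed for 3 h to test compound in IMDM without supplements. Percent inhibition set between vehicle and 1 μM DI-1548 positive control; IC50 derived by Hill-equation fitting of dose-response curves.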

[2] = system: fetal hemoglobin gene HBG1; assay: HBG1 Nanostring Assay in CD34+ HSPC erythroid differentiation culture; type: cell-based, human; conditions: for Nanostring Ymax obs (%): relative to a control compound (C1); for EC50: Homo sapiens, 240 h, HBG1 induction, Day10 of erythroid differentiation
Procedure: A Nanostring Assay was performed to evaluate the ability of the compounds to induce expression of the fetal hemoglobin gene HBG1 in cells. The data are shown as EC50, with stronger inducers having a lower EC50 value and higher YMax.
Forty eight hours later (day −2), the cells were passaged at a density of 200,000 cells/ml (100 ul/well in 96well culture plate) in complete expantion media. The cells were plated at 200,000 cells/ml on day 0 and day 3, 400,000 cells/ml on day 5 in phase 1 erythroid differentiation containing StemSpan with 2.5 U/mL of EPO (R&D systems, 287-TC-500), 0.5 mg/mL of Holo-Transferrin (Sigma, T0665-500MG), 1× Glutamine (Gluta-Max) (Gibco, 35050-061), 5 μL/mL Lipid Mixture (Sigma, L0288-100ML), 50 ng/mL SCF (R&D Systems, 255-SV-050), 10 ng/mL IL-3 (R&D Systems, 203-IL010) and 10 ng/mL Insulin (Sigma, I9278-5ML) all 200 μl per well in 96 well culture plate. Cells were then passaged at 500,000 cells/ml and 200 μl per well on day 7 in phase 2 Erythroid differentiation (Phase 1 erythroid differentiation removing IL-3) until collection day (Day10). The culture conditions were used for both control DMSO as well as experimental treatments.
For all cell pasagings, cells were centrifuged at 300 g for 8 minutes at room temperature and cell number were normalized by MANTIS and Integra VIAFLO 384. All the compounds are diluted in DMSO and added to complete media by Formulatrix FAST and mixed starting from day −2. Cells were counted by Luna cell counter with AOPI Staining Solution (Nexcelom Bioscience, CS2-0106-25 mL) on day-2. Cells were counted by BD FACSCelesta Flow Cytometer with CountBright™ Plus Absolute Counting Beads (Thermal Fisher Scientific, C36995) and SYTOX AADvanced™ Ready Flow™ Reagent (Invitrogen, R37173) for other passages. Cells were cultured at 37° C. and 5% CO2. DMSO concentration was kept at 0.1% to minimize any effects to the cells by the vehicle. […] Compound plates were kept at room temperature to protect from light to avoid multiple freeze and thaw cycle.
On the collection day (Day10), 100K cells were collected and stored at −80° C. For direct hybridization for Nanostring, 100K cell pellet was lyzed in 25 μL of RLT (QIAGEN, 79216) with 1×β-Mercaptoethanol (Gibco, 21985-023) and shaked at 300-500 RPM for 5 minutes at room temperature. Cell lysate was stored in −80° C. after lysis.
All hybridizations were done in a total volume of 15 μL (3 μL of RNA lysate added to master mix of 12 μL probe A/B, capture probe/reporter probes, proteinase K and attenuation oligos suspended in hybridization buffer). Samples were hybridized at 67° C. for 22 hr. Following hybridization, the tripartide complexes were purified, immobilized by nCounter Prep Station and imaged by Digital Analyzer (nCounter MAX/FLEX Analysis System), to generate digital counts of barcodes corresponding to each target in the multiplexed reaction. Labeled barcodes obtained from unamplified extracts were counted at 555 images or field of view (FOV). The barcode counts for each sample were recorded in Reporter Code Count (RCC) files that are imported into nSolver analysis software (provided with CodeSet by NS) for quality control evaluation.
The quality control (QC) metric included limit of detection QC by checking for wells with less than 100 total counts for positive controls.
Hybridization signals were normalized against the ERCC positive controls and CodeSet Content (housekeeping gene). Briefly, this involved first calculating a sample-specific scaling factor by calculating arithmetic mean of geomeans of all ERCC positive controls with counts more than zero in all samples. Then this arithmetic mean was divided by the geometric mean of each lane to generate a lane-specific normalization factor. All negative controls and target-specific signal values were then normalized by multiplying counts values with their sample-specific scaling factor. The acceptable range for scaling factors is 0.3-3.0. […]

[3] = target: DCN1 (DCUND1) protein PONY domain (Homo sapiens (Human), UniProt Q96GG9); assay: TR-FRET assay, DCN1 binding with FAM-labeled probe
DCN1 (DCUND1) protein PONY domain, sequence (Q96GG9 60-248): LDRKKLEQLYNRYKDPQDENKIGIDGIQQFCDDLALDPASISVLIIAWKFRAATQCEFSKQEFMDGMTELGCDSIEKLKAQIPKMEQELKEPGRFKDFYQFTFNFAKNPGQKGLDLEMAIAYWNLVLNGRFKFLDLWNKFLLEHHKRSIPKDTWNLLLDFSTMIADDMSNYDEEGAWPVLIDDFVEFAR
Procedure, shortened: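 Biotinylated DCN1 PONY domain, labeled with streptavidin-Tb, was competed against a FAM-labeled non-covalent DCN1 inhibitor probe in buffer with TritonX and 200 mM NaCl. Conditions were 5 nM DCN1 with 20 nM FAM-probe, or 0.31 nM DCN1 with 100 nM FAM-plus 800 nM unlabeled probe. The TR-FRET ratio was read at 1, 5 and 24 h (0.1% DMSO).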

DCN1 protein = DCN1 protein (Homo sapiens (Human), UniProt Q96GG9); assay: Intact Protein MS Analysis with the RapidFire-TOF System (covalent adduct formation); type: binding; conditions: MS Emax; 400 nM DCN1, 3 hours at room temperature
DCN1 protein, sequence (Q96GG9 whole entry): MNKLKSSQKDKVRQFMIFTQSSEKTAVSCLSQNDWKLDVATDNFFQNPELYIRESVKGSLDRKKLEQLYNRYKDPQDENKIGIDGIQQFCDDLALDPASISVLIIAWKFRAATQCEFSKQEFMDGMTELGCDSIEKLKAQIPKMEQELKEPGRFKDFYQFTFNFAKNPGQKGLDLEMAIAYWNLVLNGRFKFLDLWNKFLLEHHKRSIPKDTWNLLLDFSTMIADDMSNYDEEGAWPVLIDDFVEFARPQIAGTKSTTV
Procedure, shortened: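 Tag-cleaved human DCN1 (400 nM) expressed in E. coli, in 25 mM Tris-HCl, 200 mM NaCl, 1 mM DTT, was incubated with 11 compound concentrations for 3 h at room temperature and quenched with 0.2% formic acid. Intact-protein Q-TOF MS with deconvolution detected the compound adduct mass.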

[4] = 24 hr after treatment with compound, read-out: TR FRET IC50 24 hr
[5] = read-out: TR FRET IC50 1 hr, 1 hr after treatment with compound

Compound | IC50 ([1]; TF-1, 3 h) | Nanostring Ymax obs (%) [2] | IC50 [3, 4] | IC50 [3, 5] | EC50 [2] | IC50 ([3]; TR FRET IC50 1 hr (nM), 1 hr after treatment with compound) | % Adduct Formation (DCN1 protein) | IC50 [1]
C=C(C(=O)NCc1nn(-c2ccccc2)c2c1[C@H](c1ccc(F)cc1)[C@H](NC(=O)c1cccc(C(F)(F)F)c1)C(=O)N2CC)C(C)N1CCOCC1 (mixture of isomers) [Compound I-89] | ≤ 100 nM | ++ (Nanostring Ymax greater than 50.0 and less than or equal to 100.0) | ≤ 200 nM | ≤ 200 nM | – | – | – | –
CCN1C(=O)[C@H](NC(=O)c2cccc(C(F)(F)F)c2)[C@H](c2ccc(F)cc2)c2c(C(=O)N3C[C@H](F)C[C@@H]3C#N)nn(-c3ccccc3)c21 (mixture of isomers) [Compound I-253, N-((4RS,5RS)-3-((2R,4R)-2-cyano-4-fluoropyrrolidine-1-carbonyl)-7-ethyl-4-(4-fluorophenyl)-6-oxo-1-phenyl-4,5,6,7-tetrahydro-1H-pyrazolo[3,4-b]pyridine-5-yl)-3-(trifluoromethyl)benzamide] | ≤ 100 nM | ++ (Nanostring Ymax greater than 50.0 and less than or equal to 100.0) | ≤ 200 nM | – | > 1000 nM | 1000 to 3000 nM | – | –
C=C(CN1CC2CCC1CO2)C(=O)NCc1nn(-c2ccccc2)c2c1[C@H](c1ccc(F)cc1)[C@H](NC(=O)c1cccc(C(F)(F)F)c1)C(=O)N2CC (mixture of isomers) [Compound I-447] | ≤ 100 nM | +++ (Nanostring Ymax greater than 100.0) | ≤ 200 nM | ≤ 200 nM | ≤ 100 nM | – | – | –
C=C(CN1CC2CC1C2)C(=O)NCc1nn(-c2ccccc2)c2c1[C@H](c1ccc(F)cc1)[C@H](NC(=O)c1cccc(C(F)(F)F)c1)C(=O)N2CC (mixture of isomers) [Compound I-456] | ≤ 100 nM | ++ (Nanostring Ymax greater than 50.0 and less than or equal to 100.0) | ≤ 200 nM | ≤ 200 nM | – | – | – | –
C=C(CN1CC2(CCC2O)C1)C(=O)NCc1nn(-c2ccccc2)c2c1[C@H](c1ccc(F)cc1)[C@H](NC(=O)c1cccc(C(F)(F)F)c1)C(=O)N2CC (mixture of isomers) [Compound I-458] | ≤ 100 nM | ++ (Nanostring Ymax greater than 50.0 and less than or equal to 100.0) | ≤ 200 nM | ≤ 200 nM | – | – | – | –
C=CS(=O)(=O)NCc1nn(-c2ccccc2)c2c1[C@H](c1ccc(F)cc1)[C@H](NC(=O)c1cccc(C(F)(F)F)c1)C(=O)N2CC (racemic) [Compound I-230] | ≤ 100 nM | ++ (Nanostring Ymax greater than 50.0 and less than or equal to 100.0) | – | – | > 1000 nM | – | – | –
N#C[C@@H]1C[C@H]2C[C@H]2N1C(=O)c1nn(C2CCOCC2)c2c1[C@H](C1CC1)[C@H](NC(=O)c1cccc(C(F)(F)F)c1)C(=O)N2C1CC1 [Compound I-388, N-((4S,5S)-3-((1R,3S,5R)-3-cyano-2-azabicyclo[3.1.0]hexane-2-carbonyl)-4,7-dicyclopropyl-6-oxo-1-(tetrahydro-2H-pyran-4-yl)-4,5,6,7-tetrahydro-1H-pyrazolo[3,4-b]pyridin-5-yl)-3-(trifluoromethyl)benzamide] | ≤ 100 nM | – | ≤ 200 nM | ≤ 200 nM | – | – | ++ (MS Emax % adduct formation greater than 30.0 and less than or equal to 80.0) | –
CCN1C(=O)[C@@H](NC(=O)c2cccc(SC(F)(F)F)c2)[C@@H](C2CC2)c2c(C(=O)N3[C@H](C#N)C[C@H]4C[C@H]43)nn(C3CCOCC3)c21 [Compound I-389] | – | – | ≤ 200 nM | ≤ 200 nM | – | – | +++ (MS Emax % adduct formation greater than 80.0 and less than or equal to 100.0) | ≤ 100 nM
CCN1C(=O)[C@@H](NC(=O)c2cccc(C(F)(F)F)n2)[C@@H](C2CC2)c2c(C(=O)N3[C@H](C#N)C[C@H]4C[C@H]43)nn(C3CCOCC3)c21 [Compound I-390] | – | – | ≤ 200 nM | ≤ 200 nM | – | – | +++ (MS Emax % adduct formation greater than 80.0 and less than or equal to 100.0) | ≤ 100 nM
CCN1C(=O)[C@@H](NC(=O)c2ccc3c(c2)CCC3)[C@@H](C2CC2)c2c(C(=O)N3[C@H](C#N)C[C@H]4C[C@H]43)nn(C3CCOCC3)c21 [Compound I-391] | – | – | ≤ 200 nM | ≤ 200 nM | – | – | +++ (MS Emax % adduct formation greater than 80.0 and less than or equal to 100.0) | ≤ 100 nM
CCN1C(=O)[C@@H](NC(=O)c2csc(C(F)(F)F)n2)[C@@H](C2CC2)c2c(C(=O)N3[C@H](C#N)C[C@H]4C[C@H]43)nn(C3CCOCC3)c21 [Compound I-392] | – | – | ≤ 200 nM | ≤ 200 nM | – | – | +++ (MS Emax % adduct formation greater than 80.0 and less than or equal to 100.0) | ≤ 100 nM
CCN1C(=O)[C@@H](NC(=O)c2cccc3c2OCCC3)[C@@H](C2CC2)c2c(C(=O)N3[C@H](C#N)C[C@H]4C[C@H]43)nn(C3CCOCC3)c21 [Compound I-394] | – | – | ≤ 200 nM | ≤ 200 nM | – | – | +++ (MS Emax % adduct formation greater than 80.0 and less than or equal to 100.0) | ≤ 100 nM
CCN1C(=O)[C@@H](NC(=O)c2cccc(OC)c2)[C@@H](C2CC2)c2c(C(=O)N3[C@H](C#N)C[C@H]4C[C@H]43)nn(C3CCOCC3)c21 [Compound I-395] | – | – | ≤ 200 nM | ≤ 200 nM | – | – | +++ (MS Emax % adduct formation greater than 80.0 and less than or equal to 100.0) | ≤ 100 nM
CCN1C(=O)[C@@H](NC(=O)c2cccc(OC(F)(F)F)c2)[C@@H](C2CC2)c2c(C(=O)N3[C@H](C#N)C[C@H]4C[C@H]43)nn(C3CCOCC3)c21 [Compound I-396] | – | – | ≤ 200 nM | ≤ 200 nM | – | – | +++ (MS Emax % adduct formation greater than 80.0 and less than or equal to 100.0) | ≤ 100 nM
CCN1C(=O)[C@@H](NC(=O)c2cccc3c2OCO3)[C@@H](C2CC2)c2c(C(=O)N3[C@H](C#N)C[C@H]4C[C@H]43)nn(C3CCOCC3)c21 [Compound I-397] | – | – | ≤ 200 nM | ≤ 200 nM | – | – | +++ (MS Emax % adduct formation greater than 80.0 and less than or equal to 100.0) | ≤ 100 nM
